Each block holds one molecule with its values, some of them ahead of it.
What was measured:
Format in all cases: biochemical
[1] = system: Dipeptidylaminopeptidase; assay: Inhibition of dipeptidylaminopeptidase from monkey brain (substrate enkephalin)
[2] = system: Aminopeptidase; assay: Inhibition of aminopeptidase from monkey brain (substrate enkephalin)
[3] = molecular target: T1, angiotensin converting enzyme (Rattus norvegicus, UniProt P47820); assay: Inhibition of angiotensin converting enzyme from rat lung; conditions: substrate Hip--His--L-Lue
T1 construct: lung; from tissue; host or cells: rat lung
T1 sequence (P47820 36-1313): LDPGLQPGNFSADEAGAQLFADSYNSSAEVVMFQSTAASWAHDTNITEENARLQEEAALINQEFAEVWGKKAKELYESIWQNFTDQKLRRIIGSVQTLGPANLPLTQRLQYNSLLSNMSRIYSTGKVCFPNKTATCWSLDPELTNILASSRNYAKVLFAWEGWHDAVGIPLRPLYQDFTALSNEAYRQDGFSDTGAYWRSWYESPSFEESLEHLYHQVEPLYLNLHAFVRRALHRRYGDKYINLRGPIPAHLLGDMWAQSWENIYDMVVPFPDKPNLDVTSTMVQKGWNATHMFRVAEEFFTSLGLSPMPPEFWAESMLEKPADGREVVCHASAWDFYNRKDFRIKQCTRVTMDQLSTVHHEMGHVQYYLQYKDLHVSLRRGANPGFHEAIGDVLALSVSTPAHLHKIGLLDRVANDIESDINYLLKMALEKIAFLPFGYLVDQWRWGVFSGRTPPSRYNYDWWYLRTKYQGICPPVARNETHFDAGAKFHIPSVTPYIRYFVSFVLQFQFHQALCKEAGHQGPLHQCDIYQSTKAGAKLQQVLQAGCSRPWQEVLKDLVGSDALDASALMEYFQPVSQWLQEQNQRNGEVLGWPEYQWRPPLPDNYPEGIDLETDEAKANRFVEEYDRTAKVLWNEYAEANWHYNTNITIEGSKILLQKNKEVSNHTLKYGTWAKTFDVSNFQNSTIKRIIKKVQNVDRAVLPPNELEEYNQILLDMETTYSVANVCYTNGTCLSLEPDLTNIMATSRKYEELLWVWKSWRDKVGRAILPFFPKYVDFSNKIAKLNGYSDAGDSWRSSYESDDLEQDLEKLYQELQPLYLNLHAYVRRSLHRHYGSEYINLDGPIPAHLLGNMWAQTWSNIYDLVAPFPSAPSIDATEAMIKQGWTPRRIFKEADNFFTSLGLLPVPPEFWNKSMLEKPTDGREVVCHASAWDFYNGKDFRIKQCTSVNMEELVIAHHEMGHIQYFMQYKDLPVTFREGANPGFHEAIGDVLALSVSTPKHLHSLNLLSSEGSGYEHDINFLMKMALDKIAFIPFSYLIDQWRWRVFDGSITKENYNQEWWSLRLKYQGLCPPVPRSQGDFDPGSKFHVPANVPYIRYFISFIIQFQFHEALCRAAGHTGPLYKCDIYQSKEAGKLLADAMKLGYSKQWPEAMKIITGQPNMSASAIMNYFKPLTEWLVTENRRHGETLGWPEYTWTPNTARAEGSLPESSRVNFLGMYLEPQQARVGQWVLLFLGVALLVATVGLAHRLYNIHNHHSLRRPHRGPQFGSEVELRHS

[4] = molecular target: Angiotensin converting enzyme; assay: Inhibition of angiotensin converting enzyme from monkey brain; conditions: substrate Hip--His--L-Lue
[5] = system: Carboxypeptidase; assay: Inhibition of carboxypeptidase from bovine longitudinal muscle (substrate Hip-L-PheAla); conditions: for inhibition rate, Carboxypeptidase: principal ingredient 1 μg/1 ml
Text: (§1) (1) As described above, the inhibitor of the present invention has a strong effect of inhibiting the action of the opioid peptide-degrading enzyme. […] On the other hand, however, some opioid peptides released in vivo when such narcotic substances are given and opioid peptide-degrading enzymes have been known. Accordingly, the effects of the products of the present invention were judged from inhibition rates realized when the products were allowed to act on the opioid peptide-degrading enzyme in the presence of the opioid peptide in vitro.
(§2) In the tests, the product of the invention was added to an opioid peptide such as enkephalin or its model compound. After an incubation effected for a given time, the inhibition rates of the product against the opioid peptide-degrading enzyme were examined. Various opioid peptides were used.
(§3) The opioid peptide-degrading enzymes derived from bovine longitudinal muscle used in the above examples were purified partially by a process of Goreustein and Snyder S. H., ["Life Sci." 25, 2065 (1979)]. The inhibition effects of the compounds of the present invention on the opioid peptide-degrading enzymes were determined by a process of T. Hazato, M. Shimamura, T. Katayama and T. Yamamoto [B.B.R.C. 105, 470-475 (1982)] (for dipeptidylaminopeptidase), a process of M. Shimamura, T. Hazato and T. Katayama [B.B.A., 756, 223-229 (1983)] (for aminopeptidase) and analogous processes.

[6] = molecular target: T2, Dipeptidylcarboxypeptidase (Bos taurus, UniProt P12820); assay: Inhibition of dipeptidylcarboxypeptidase from bovine longitudinal muscle (substrate Hip-His-Leu)
T2 construct: derived from bovine longitudinal muscle; from tissue; host or cells: bovine longitudinal muscle, partially purified (Gorenstein and Snyder 1979)
T2 sequence (P12820 29-1306): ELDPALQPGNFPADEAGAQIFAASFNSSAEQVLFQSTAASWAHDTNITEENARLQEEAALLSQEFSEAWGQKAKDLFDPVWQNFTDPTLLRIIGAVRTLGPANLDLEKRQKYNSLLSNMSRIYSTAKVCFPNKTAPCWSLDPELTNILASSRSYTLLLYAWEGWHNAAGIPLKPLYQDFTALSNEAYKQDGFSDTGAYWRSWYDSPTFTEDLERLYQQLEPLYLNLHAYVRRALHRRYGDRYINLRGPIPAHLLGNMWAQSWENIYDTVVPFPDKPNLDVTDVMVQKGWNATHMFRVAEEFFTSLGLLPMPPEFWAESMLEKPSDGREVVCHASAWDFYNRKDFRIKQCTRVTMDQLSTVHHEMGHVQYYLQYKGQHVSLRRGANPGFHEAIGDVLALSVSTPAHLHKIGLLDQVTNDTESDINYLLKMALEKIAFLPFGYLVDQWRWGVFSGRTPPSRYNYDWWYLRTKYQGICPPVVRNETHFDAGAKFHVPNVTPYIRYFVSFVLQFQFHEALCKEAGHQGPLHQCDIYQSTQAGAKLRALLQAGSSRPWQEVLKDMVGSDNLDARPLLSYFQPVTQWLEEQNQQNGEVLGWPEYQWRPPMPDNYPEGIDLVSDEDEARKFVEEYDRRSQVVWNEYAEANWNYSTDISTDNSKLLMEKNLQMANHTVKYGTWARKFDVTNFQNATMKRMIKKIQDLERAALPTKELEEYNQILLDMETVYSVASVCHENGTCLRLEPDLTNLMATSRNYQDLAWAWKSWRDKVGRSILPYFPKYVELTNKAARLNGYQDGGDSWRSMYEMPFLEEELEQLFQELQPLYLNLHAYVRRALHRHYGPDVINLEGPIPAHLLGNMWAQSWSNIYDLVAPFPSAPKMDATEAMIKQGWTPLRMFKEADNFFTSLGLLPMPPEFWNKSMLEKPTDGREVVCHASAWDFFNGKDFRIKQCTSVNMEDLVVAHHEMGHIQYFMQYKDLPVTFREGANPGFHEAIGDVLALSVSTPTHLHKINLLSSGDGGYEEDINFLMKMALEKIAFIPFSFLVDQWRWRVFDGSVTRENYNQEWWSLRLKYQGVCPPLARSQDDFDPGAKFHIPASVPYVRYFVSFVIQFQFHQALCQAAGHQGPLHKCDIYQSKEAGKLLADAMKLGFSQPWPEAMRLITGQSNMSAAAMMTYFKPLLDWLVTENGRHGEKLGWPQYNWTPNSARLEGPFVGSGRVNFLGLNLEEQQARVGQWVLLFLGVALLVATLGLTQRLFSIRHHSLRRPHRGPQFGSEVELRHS
Text: as §1, §2
as §3, with “(for aminopeptidase) and analogous processes.” left out

[7] = molecular target: aminopeptidase; assay: Inhibition of aminopeptidase of human cerebrospinal fluid (substrate enkephalin); conditions: for IC50: aminopeptidase eluted from human cerebrospinal fluid, substrate enkephalin; for inhibition effect on aminopeptidase: dialyzed human cerebrospinal fluid, 2 mg/ml
Description: (§4) A human cerebrospinal fluid was dialyzed by using 25 mM of tris-HCl buffer having a pH of 7.0 for 5 hrs. Enkephalin-degrading enzymes contained therein were analyzed according to a radioautography or the like. In the cerebrospinal fluid, the aminopeptidase activity was the strongest. Further, dipeptidylaminopeptidase and dipeptidylcarboxypeptidase activites which were non-selective for bestatin were also recognized.
(§5) The compound (3) and (6) of the present invention were allowed to act on the respective enzymes.
On the other hand, the aminopeptidase alone was eluted according to the cellulose column chromatography using a NaCl solution as a eluant. IC50 values of the above two compounds on the aminopeptidase were determined according to Porapak Q column process and high-performance liquid chromatography using enkephalin as the substrate. The results were compared with those of Arphamenin A and B the inhibitive actions of which on the enkephalin-degrading enzyme have been known.

[8] = molecular target: dipeptidylcarboxypeptidase (Homo sapiens, UniProt P12821); assay: Inhibition of dipeptidylcarboxypeptidase of human cerebrospinal fluid; conditions: dialyzed human cerebrospinal fluid; 2 mg/ml
Description: as §4, §5

[9] = system: carboxypeptidase; assay: Inhibition of carboxypeptidase of human cerebrospinal fluid; conditions: dialyzed human cerebrospinal fluid; 2 mg/ml
Description: as §4, §5

[10] = molecular target: Aminopeptidase; assay: Inhibition of aminopeptidase from bovine longitudinal muscle (substrate enkephalin); conditions: for IC50: aminopeptidase; for inhibition rate, Aminopeptidase: principal ingredient 1 μg/1 ml
Text: as §1, §2, §3

[11] = molecular target: T3, dipeptidylaminopeptidase (Homo sapiens, UniProt Q9NY33); assay: Inhibition of dipeptidylaminopeptidase of human cerebrospinal fluid; conditions: dialyzed human cerebrospinal fluid; 2 mg/ml
T3 construct: A human cerebrospinal fluid was dialyzed; from tissue; host or cells: human cerebrospinal fluid, dialyzed
T3 sequence (Q9NY33 2-737 limits assumed): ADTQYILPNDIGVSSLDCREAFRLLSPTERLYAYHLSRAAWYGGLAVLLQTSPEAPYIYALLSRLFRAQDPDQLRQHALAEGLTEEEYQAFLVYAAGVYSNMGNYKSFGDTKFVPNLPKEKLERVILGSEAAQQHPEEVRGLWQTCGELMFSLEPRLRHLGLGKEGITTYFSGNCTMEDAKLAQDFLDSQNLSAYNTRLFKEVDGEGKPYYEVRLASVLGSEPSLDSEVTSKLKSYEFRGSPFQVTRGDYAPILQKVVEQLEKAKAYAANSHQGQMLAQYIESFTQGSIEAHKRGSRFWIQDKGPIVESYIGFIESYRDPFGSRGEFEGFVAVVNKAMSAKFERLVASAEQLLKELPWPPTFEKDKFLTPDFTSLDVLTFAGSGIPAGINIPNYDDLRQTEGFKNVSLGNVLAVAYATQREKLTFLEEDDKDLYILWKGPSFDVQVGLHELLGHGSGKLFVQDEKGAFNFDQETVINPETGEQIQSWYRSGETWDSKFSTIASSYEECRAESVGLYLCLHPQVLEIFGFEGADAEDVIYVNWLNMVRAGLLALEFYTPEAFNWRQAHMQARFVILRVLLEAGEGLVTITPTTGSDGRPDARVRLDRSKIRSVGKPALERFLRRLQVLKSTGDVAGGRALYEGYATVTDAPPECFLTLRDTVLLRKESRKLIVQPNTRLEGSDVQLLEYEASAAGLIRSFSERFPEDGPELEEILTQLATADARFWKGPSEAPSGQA
Description: as §4, §5

Sequence of dipeptidylcarboxypeptidase (P12821 30-1232): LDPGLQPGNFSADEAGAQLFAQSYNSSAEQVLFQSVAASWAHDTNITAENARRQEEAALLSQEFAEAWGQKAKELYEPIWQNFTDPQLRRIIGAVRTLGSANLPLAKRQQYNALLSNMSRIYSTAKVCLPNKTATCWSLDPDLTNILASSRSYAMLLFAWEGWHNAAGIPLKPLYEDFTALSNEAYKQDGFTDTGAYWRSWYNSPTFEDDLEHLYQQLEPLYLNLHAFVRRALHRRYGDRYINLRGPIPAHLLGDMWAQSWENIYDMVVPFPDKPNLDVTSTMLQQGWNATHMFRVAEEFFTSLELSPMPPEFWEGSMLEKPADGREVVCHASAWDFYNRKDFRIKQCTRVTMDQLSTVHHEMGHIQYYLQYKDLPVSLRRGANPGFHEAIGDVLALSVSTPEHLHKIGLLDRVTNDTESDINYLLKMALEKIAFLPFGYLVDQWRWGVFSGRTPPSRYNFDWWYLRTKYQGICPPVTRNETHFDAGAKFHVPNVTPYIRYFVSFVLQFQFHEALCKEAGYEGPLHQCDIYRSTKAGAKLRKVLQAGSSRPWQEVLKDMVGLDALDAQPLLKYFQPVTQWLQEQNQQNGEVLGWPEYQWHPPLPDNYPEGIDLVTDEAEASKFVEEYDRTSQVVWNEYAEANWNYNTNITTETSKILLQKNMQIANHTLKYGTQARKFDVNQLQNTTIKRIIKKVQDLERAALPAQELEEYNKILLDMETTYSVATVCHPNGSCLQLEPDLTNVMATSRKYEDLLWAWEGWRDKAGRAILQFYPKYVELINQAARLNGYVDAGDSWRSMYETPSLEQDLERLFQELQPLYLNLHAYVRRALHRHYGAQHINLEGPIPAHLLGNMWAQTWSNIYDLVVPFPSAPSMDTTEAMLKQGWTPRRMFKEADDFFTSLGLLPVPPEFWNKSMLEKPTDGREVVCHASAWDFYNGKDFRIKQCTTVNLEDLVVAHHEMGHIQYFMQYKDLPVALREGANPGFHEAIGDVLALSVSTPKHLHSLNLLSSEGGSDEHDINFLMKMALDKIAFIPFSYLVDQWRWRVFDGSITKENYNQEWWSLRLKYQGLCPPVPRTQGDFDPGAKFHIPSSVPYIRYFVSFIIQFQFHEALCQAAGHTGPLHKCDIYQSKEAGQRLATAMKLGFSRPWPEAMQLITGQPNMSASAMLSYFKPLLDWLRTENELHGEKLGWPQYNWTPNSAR

Structure (SMILES): C[CH](CC(=O)O)[Ge](=[S])[S][Ge](=[S])[CH](C)CC(=O)O (stereo not drawn) [Compound (2)]
- inhibition rate, Dipeptidylaminopeptidase [1]: 97.9%
- inhibition rate, Aminopeptidase [2]: 87.6%
- IC50 [3]: 168 µM
- IC50 [4]: 78 µg/mL
- inhibition rate, Carboxypeptidase [5]: 6.2%
- IC50 [6]: 159 µM

- IC50 [7]: 650 μg/m
Structure (SMILES): N=C(N)NCCCC(N)C(=O)CC(Cc1ccc(O)cc1)C(=O)O (stereo not drawn) [Arphamenine B, reference compound]

Structure (SMILES): O=C(O)C[CH](c1ccccc1)[Ge](=[S])[S][Ge](=[S])[CH](CC(=O)O)c1ccccc1 (stereo not drawn) [Compound (6)]
- inhibition effect on dipeptidylcarboxypeptidase [8]: exhibited inhibition effects
- IC50 [7]: 440 μg/m
- inhibition effect on aminopeptidase [7]: exhibited inhibition effects
- inhibition effect on carboxypeptidase [9]: exhibited inhibition effects
- IC50 [10]: 19 µg/mL
- inhibition rate, Aminopeptidase [10]: 97.0%
- IC50 ([5]; carboxypeptidase): 275 µg/mL
- inhibition rate, Carboxypeptidase [5]: 89.8%
- IC50 [6]: 185 µM

- IC50 [7]: 810 μg/m
Structure (SMILES): N=C(N)NCCCC(N)C(=O)CC(Cc1ccccc1)C(=O)O (stereo not drawn) [Arphamenine A, reference compound]

Structure (SMILES): CC([CH2][Ge](=[S])[S][Ge](=[S])[CH2]C(C)C(=O)O)C(=O)O (stereo not drawn) [Compound (3)]
- inhibition effect on dipeptidylaminopeptidase [11]: exhibited inhibition effects
- inhibition effect on dipeptidylcarboxypeptidase [8]: exhibited inhibition effects
- IC50 [7]: 450 μg/m
- inhibition effect on aminopeptidase [7]: exhibited inhibition effects
- inhibition rate, Dipeptidylaminopeptidase [1]: 97.7%
- inhibition rate, Aminopeptidase [2]: 85.6%

Structure (SMILES): O=C(O)C[CH2][Ge](=[S])[S][Ge](=[S])[CH2]CC(=O)O [Compound (1)]
- inhibition rate, Dipeptidylaminopeptidase [1]: 98.2%
- inhibition rate, Aminopeptidase [2]: 87.8%

Structure (SMILES): C[C](C)(CC(=O)O)[Ge](=[S])[S][Ge](=[S])[C](C)(C)CC(=O)O [Compound (5)]
- IC50 [10]: 110 µg/mL
- inhibition rate, Aminopeptidase [10]: 88.0%

Source: patent US4748187A, “Opioid peptide-degrading enzyme inhibitor with a germanium compound” (Asai Germanium Research Institute, priority 1983, dated 1988)
